Like-named read-outs stand apart in the source and are kept apart here.
Tests used:
MCF-7 cells = experiment: Estrogen-dependent MCF-7 growth inhibition; type: cell-based, human; conditions: estrogen-dependent MCF-7 cells
[1] = molecular target: T1, recombinant human aromatase (CYP19) (Homo sapiens, UniProt P11511); conditions: AI previously synthesized in the authors' lab ref 9; cited from earlier work
T1 sequence (P11511 1-503): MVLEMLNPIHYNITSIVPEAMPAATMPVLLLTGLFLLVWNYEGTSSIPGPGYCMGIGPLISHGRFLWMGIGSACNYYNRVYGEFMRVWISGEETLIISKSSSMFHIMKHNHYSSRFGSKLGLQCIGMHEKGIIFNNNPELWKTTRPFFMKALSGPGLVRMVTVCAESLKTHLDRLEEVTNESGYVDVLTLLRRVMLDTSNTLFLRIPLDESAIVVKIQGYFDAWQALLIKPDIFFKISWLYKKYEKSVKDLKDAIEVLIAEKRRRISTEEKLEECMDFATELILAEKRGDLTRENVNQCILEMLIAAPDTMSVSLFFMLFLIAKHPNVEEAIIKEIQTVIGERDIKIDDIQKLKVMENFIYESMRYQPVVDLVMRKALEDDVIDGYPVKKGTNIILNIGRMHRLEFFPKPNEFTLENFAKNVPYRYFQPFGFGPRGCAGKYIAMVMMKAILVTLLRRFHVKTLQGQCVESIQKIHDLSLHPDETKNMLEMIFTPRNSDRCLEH

[2] = molecular target: T1, recombinant human aromatase (CYP19); experiment: Fluorescence-based aromatase activity assay; type: biochemical; conditions: for aromatase inhibition (in words): enzymatic assay; for fold increase in aromatase inhibitory potency vs precursor 1e: compared with 3-(pyridin-3-yl)chroman-4-one 1e
[3] = tested on: non-estrogen dependent MCF-7 cells; experiment: Growth inhibition of non-estrogen dependent MCF-7 cells; type: cell-based, human; conditions: MCF-7 cells raised without estrogen

Row | aromatase inhibition (in words) [2] | SMILES | anti-proliferative activity on MCF-7 (in words) (MCF-7 cells) | fold increase in aromatase inhibitory potency vs precursor 1e [2] | other results
1 |  | O=C1c2ccccc2OCC1c1ccc(-c2ccccc2)cc1 (stereo not shown) [1c, 3-(biphenyl-4-yl)chroman-4-one] | did not show anti-cancer cell activity |  | aromatase inhibition (in words) [1]: inactive
2 | No significant inhibition | O=C1c2c(ccc3ccccc23)OCC1c1ccc(Oc2ccccc2)cc1 (stereo not shown) [3a, 2-(4-Phenoxyphenyl)-2,3-dihydro-1H-benzo[f]chromen-1-one] |  |  | 
3 | No significant inhibition | COc1ccc2c(c1)C(=O)C(c1ccc(Oc3ccccc3)cc1)CO2 (stereo not shown) [3b, 6-Methoxy-3-(4-phenoxyphenyl)chroman-4-one] |  |  | 
4 |  | COc1ccc2c(c1)C(=O)C(c1cccnc1)CO2 (stereo not shown) [3c, 6-methoxy-3-(pyridin-3-yl)chroman-4-one] | inactive | more than 2 fold | growth inhibition (in words) [3]: no growth inhibition was observed
5 |  | O=C1c2cc(F)ccc2OCC1c1cccnc1 (stereo not shown) [3e, 6-Fluoro-3-(pyridin-3-yl)chroman-4-one] | inactive | 7 fold | fold increase in aromatase inhibitory potency vs parent 1a ([2]; compared with parent molecule 1a): 36 fold
